Patent US20220323425A1, “CO-POTENTIATORS FOR THERAPY OF CYSTIC FIBROSIS CAUSED BY MINIMAL FUNCTION CFTR MUTANTS” (THE REGENTS OF THE UNIVERSITY OF CALIFORNIA, priority 2019, published 2022)
Read-outs that look alike come from different tables or passages of the source.

What was measured:
Type in all cases: cell-based
W1282X-CFTR = molecular target: T1, W1282X-CFTR (Homo sapiens, UniProt P13569); experiment: Structure-activity testing of co-potentiator analogs in FRT cells expressing W1282X-CFTR; conditions: for Relative Vmax (%)*: 100% Vmax corresponds to 20 μM ASP-11; for EC50: FRT cells expressing W1282X-CFTR
T1 construct: CFTR1281 (the truncation product generated by W1282X-CFTR); expressed in transfected cells
Method: To establish structure-activity relationships, 240 commercially available spiro[piperidine-4,1pyrido[3,4-b]indoles]analogs and 160 pyrazoloquinoline analogs were tested in FRT cells expressing W 1282X-CFTR. FIG. 5A summarizes the structural determinants for activity for the spiro[piperidine-4,1pyrido[3,4-b]indoles] reported in Table 1A (CP-Axxx designations).
High-throughput screening used a semi-automated screening platform (Beckman, Fullerton, Calif.) as described (Haggie, 2017). FRT cells expressing W1282X and YFP were plated in 96-well black-walled, clear-bottom tissue culture plates (Corning) at a density of 20,000 cells/well and grown for 24 h at 37° C. to ˜90% confluency. Cells were treated with 3 μM VX-809 for 24 hours. Cells were then washed twice with PBS, and incubated in 100 μl of PBS containing forskolin (10 μM), VX-770 (15 nM) and test compounds (25 μM) for 10 min prior to assay of CFTR activity. All plates contained wells with positive (5 μM VX-770+20 μM ASP-11) and negative (5 μM VX-770) controls. Assays were done using a BMG Labtech FLUOstar OMEGA plate reader (Cary, N.C.) over 12 s with initial fluorescence intensity recorded for 2 s prior to addition of 100 μl of NaI-substituted PBS (137 mM NaCl replaced with NaI). Initial iodide influx was computed from fluorescence intensity by single exponential regression. […]
(§1) GraphPad Prism software (GraphPad Inc., San Diego, Calif., USA) was used for statistical analysis. EC50 values were determined by non-linear regression to a single-site inhibition model. Statistical significance was determined using unpaired Student's t test, with P<0.05 considered significant.

N1303K-CFTR = N1303K-CFTR (Homo sapiens, UniProt P13569, N1303K); experiment: Short-circuit current in FRT cells expressing N1303K-CFTR; parameters: expressed in transfected cells; host or cells: Fischer rat thyroid (FRT) cells; conditions: for EC50 / Relative Vmax (%)*: Table 1B; for EC50: cell line not given; for Relative Vmax (%)*: footnote to * not given; for short-circuit current response when added after VX-770: 20 μM forskolin, 5 μM VX-770, 20 μM test potentiator
Method: (§2) Short-circuit current was measured on cells cultured on permeable supports (Corning) as described (Haggie, 2017; Phuan, 2018). For FRT cells, the basolateral membrane was permeabilized with 250 μg/mL amphotericin B, and experiments were done using a HCO3^−-buffered system (in mM: 120 NaCl, 5 KCl, 1 MgCl2, 1 CaCl2), 5 Hepes, 25 NaHCO3, 10 glucose, pH 7.4) with a basolateral to apical chloride gradient (60 mM NaCl replaced by sodium gluconate in the apical solution). For human airway epithelial cells, symmetrical HCO3^−-buffered solutions (containing 120 mM NaCl) were used. Cells were equilibrated with 95% O2, 5% CO2 and maintained at 37° C. Hemichambers were connected to a DVC-1000 voltage clamp (World Precision Instruments Inc., Sarasota, Fla.) via Ag/AgCl electrodes and 3 M KCl agar bridges for recording of the short-circuit current.
as §1
Co-potentiator efficacy was initially determined by short-circuit current measurements in FRT cells expressing N1303K-CFTR in the presence of a transepithelial chloride gradient and with permeabilization of the basolateral cell membrane such that measured current directly reports CFTR channel activity. […] We previously defined potentiators as either class I compounds, including VX-770 and GLPG1837, or class II compounds such as the arylsulphonamide-pyrrolopyridine and spiro[piperidine-4,1-pyrido[3,4-b]indole] copotentiators that probably bind at distinct sites on CFTR. N1303K-CFTR expressing FRT cells treated with forskolin and GLPG1837 had similar 2i co-potentiator EC50 of 0.8±0.2 μM (FIG. 7B).

Q1313X-CFTR = molecular target: T2, Q1313X-CFTR (Homo sapiens, UniProt P13569); experiment: Short-circuit current in FRT cells expressing Q1313X-CFTR; conditions: 20 μM forskolin; for short-circuit current response when added after VX-770: 5 μM VX-770, 25 μM apigenin, others 20 μM
T2 construct: several truncated forms of CFTR resulting from premature termination codons (PTCs) located in NBD2; expressed in transfected cells; host or cells: FRT cells, pIRESpuro3 vector, puromycin-selected clonal lines
Method: as §2, §1

T1 sequence (P13569 1-1281 limits assumed): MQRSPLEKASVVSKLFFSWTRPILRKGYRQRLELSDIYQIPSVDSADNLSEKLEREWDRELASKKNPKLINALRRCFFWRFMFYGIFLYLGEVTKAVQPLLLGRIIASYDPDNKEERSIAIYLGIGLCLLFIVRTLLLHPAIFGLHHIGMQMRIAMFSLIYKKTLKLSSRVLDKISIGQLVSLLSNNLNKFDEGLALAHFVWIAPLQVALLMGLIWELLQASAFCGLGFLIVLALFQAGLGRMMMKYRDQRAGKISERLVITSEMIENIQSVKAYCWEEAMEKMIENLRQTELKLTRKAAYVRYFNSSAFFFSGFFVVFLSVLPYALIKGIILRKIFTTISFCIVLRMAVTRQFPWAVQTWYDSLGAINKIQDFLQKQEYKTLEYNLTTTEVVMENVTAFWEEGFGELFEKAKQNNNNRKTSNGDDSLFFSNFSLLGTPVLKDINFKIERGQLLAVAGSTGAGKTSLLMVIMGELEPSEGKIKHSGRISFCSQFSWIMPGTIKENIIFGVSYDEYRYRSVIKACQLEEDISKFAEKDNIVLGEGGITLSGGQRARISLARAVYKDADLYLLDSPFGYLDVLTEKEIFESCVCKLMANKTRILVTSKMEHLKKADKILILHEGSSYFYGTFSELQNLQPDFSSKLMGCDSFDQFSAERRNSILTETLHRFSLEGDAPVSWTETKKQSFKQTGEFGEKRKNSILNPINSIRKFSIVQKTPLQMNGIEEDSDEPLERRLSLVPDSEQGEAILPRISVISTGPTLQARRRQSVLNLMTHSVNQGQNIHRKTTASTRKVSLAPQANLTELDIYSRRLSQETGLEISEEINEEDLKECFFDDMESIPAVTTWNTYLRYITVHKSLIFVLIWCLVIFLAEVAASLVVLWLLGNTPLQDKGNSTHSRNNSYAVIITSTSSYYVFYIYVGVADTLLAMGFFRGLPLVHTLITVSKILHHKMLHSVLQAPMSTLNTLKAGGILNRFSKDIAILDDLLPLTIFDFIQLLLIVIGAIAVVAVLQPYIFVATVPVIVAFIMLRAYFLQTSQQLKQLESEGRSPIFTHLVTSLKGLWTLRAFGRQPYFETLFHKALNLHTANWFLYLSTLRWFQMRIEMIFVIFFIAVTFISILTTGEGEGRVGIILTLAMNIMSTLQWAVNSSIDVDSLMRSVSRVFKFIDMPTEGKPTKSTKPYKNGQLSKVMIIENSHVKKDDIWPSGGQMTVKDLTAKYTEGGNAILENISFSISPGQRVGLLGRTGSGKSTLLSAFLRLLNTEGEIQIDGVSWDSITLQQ
N1303K-CFTR, sequence (P13569 whole entry N1303K): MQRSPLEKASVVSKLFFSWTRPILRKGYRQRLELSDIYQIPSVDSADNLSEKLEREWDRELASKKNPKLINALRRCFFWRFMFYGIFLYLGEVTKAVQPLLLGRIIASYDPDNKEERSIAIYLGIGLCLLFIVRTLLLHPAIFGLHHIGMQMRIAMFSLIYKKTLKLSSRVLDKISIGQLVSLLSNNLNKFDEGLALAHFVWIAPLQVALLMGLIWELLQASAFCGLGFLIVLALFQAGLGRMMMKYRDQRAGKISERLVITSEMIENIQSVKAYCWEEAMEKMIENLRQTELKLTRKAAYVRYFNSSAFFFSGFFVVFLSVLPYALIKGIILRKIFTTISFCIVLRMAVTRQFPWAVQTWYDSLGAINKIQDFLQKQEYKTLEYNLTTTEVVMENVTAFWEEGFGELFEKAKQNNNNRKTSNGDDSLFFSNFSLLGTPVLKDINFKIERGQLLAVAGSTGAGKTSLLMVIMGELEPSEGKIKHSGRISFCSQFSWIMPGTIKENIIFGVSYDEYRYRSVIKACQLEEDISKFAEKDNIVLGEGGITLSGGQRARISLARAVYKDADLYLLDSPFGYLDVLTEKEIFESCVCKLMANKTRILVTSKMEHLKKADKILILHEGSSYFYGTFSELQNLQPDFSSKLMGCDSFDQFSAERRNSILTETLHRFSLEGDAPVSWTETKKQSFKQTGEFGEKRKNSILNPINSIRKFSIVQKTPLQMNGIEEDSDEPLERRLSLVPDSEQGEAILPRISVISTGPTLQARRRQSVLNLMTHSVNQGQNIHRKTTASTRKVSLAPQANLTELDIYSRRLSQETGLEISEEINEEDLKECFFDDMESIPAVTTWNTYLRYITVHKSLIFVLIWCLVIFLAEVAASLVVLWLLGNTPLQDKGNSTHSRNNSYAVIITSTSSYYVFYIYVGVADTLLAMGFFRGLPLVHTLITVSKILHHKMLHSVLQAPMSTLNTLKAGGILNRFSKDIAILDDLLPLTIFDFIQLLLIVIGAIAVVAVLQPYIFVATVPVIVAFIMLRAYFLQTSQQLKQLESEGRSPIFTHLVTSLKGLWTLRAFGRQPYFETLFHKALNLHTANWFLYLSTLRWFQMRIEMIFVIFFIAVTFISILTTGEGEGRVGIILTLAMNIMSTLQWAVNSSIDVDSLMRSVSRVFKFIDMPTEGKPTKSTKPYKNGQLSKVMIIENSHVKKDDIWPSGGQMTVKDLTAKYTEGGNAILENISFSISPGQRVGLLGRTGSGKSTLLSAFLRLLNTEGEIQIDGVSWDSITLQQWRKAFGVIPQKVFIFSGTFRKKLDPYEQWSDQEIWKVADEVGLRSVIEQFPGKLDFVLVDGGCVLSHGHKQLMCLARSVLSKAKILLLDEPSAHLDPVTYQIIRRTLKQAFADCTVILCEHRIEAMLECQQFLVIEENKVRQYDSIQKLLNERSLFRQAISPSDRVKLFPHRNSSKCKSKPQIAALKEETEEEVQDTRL
T2 sequence (P13569 1-1312 limits assumed): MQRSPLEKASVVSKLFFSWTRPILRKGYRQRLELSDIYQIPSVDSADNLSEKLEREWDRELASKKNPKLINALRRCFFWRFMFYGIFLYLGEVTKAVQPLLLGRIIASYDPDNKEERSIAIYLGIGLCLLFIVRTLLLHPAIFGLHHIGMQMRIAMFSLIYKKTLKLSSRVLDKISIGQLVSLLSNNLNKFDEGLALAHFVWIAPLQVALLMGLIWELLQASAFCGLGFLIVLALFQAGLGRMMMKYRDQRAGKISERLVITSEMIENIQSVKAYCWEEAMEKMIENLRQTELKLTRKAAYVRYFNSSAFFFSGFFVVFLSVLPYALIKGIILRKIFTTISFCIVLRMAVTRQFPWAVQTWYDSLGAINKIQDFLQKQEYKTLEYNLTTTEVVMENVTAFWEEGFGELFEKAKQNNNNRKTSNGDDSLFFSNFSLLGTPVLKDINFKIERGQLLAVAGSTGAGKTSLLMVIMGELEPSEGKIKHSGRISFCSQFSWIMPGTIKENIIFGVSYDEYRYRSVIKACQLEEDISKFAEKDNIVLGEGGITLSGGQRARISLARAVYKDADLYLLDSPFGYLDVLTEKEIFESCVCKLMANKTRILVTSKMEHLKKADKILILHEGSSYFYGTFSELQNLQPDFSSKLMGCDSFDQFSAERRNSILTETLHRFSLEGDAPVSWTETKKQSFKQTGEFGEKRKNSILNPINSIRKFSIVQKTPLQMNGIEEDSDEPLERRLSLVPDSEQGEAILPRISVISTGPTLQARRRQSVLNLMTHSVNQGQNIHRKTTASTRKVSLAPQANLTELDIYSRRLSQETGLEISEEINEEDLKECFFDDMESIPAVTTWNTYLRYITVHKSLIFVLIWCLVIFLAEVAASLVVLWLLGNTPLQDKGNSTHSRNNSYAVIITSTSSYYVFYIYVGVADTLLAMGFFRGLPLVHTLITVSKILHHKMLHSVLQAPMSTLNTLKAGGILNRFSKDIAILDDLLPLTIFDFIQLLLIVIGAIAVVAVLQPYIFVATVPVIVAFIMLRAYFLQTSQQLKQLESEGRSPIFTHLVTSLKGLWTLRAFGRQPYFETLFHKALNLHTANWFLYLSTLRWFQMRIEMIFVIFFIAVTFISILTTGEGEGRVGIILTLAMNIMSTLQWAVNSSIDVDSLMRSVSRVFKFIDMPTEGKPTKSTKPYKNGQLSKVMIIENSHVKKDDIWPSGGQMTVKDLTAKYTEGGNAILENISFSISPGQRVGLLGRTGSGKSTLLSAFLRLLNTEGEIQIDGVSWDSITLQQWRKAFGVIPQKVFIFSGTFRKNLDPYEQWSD

Relative Vmax (%)* (W1282X-CFTR; Table 1A) [%] | EC50 (W1282X-CFTR; Table 1A, read-out: EC50 (μM))) [µM] | Relative Vmax (%)* (W1282X-CFTR; Table 2) [%] | EC50 (W1282X-CFTR; Table 2, read-out: EC50) [µM] | Structure (SMILES) | also measured
6 | > 30 |  |  | COc1ccc2[nH]c3c(c2c1)CCNC31CCN(C)CC1 [Compound A764] | 
31 | 16 |  |  | c1ccc(CN2CCC3(CC2)NCCc2c3[nH]c3ccccc23)cc1 [Compound A357] | 
91 | 5.1 |  |  | COc1ccc2[nH]c3c(c2c1)CCNC31CCN(Cc2scnc2C)CC1 [Compound A666] | 
24 | 13 |  |  | COc1cccc(CN2CCC3(CC2)NCCc2c3[nH]c3ccccc23)c1 [Compound A534] | 
−4 | > 30 |  |  | O=C(c1ccccc1)N1CCC2(CC1)NCCc1c2[nH]c2ccccc12 [Compound A815] | 
 |  | 11 | 18 | Cc1ccc2cc3c(N)nn(C(=O)c4ccc(F)cc4)c3nc2c1 [Compound D136] | 
18 | > 30 |  |  | COc1ccc2[nH]c3c(c2c1)CCNC31CCN(C2CCCCC2)CC1 [Compound A714] | 
 |  | 3 | > 30 | COc1ccc2cc3c(N)nn(C(=O)c4ccc([N+](=O)[O-])c(C)c4)c3nc2c1 [Compound D025] | 
 |  | 100 | 1.7 | COc1ccc2cc3c(N)nn(C(=O)c4ccc([N+](=O)[O-])cc4Cl)c3nc2c1 [Compound D038] | 
 |  | 1 | > 30 | COc1ccc2cc3c(N)nn(C(=O)Cc4ccc([N+](=O)[O-])cc4)c3nc2c1 [Compound D035] | 
 |  | 11 | > 30 | COc1ccc2cc3c(N)nn(C(=O)c4ccc(Cl)c([N+](=O)[O-])c4)c3nc2c1 [Compound D036] | 
7 | > 30 |  |  | CCC(=O)N1CCC2(CC1)NCCc1c2[nH]c2ccc(OC)cc12 [Compound A350] | 
 |  |  |  | COc1ccc2[nH]c3c(c2c1)CCNC31CCN(Cc2ccc(F)c(F)c2F)CC1 [Compound 2g, 6′-Methoxy-1-(2,3,4-trifluorobenzyl)-2′,3′,4′,9′-tetrahydrospiro[piperidine-4,1′-pyrido[3,4-b]indole]] | EC50 (N1303K-CFTR): 4.1 µM; Relative Vmax (%)* (N1303K-CFTR): 100%
 |  | 3 | > 30 | COc1ccc2cc3c(N)nn(C(=O)Cc4ccc([N+](=O)[O-])cc4)c3nc2c1 [Compound D086] | 
 |  |  |  | COc1ccc2[nH]c3c(c2c1)CCNC31CCN(Cc2cc(F)c(F)c(F)c2)CC1 [Compound 2d, 6′-Methoxy-1-(3,4,5-trifluorobenzyl)-2′,3′,4′,9′-tetrahydrospiro[piperidine-4,1′-pyrido[3,4-b]indole]] | EC50 (N1303K-CFTR): 2.6 µM; Relative Vmax (%)* (N1303K-CFTR): 121%
 |  | 92 | 2.4 | COc1ccc2cc3c(N)nn(C(=O)c4ccc(F)cc4Cl)c3nc2c1 [Compound D018] | 

Relative Vmax (%)* (W1282X-CFTR; Table 1A) [%] | EC50 (W1282X-CFTR; Table 1A, read-out: EC50 (μM))) [µM] | Relative Vmax (%)* (W1282X-CFTR; Table 2) [%] | EC50 (W1282X-CFTR; Table 2, read-out: EC50) [µM] | Structure (SMILES) | also measured
 |  |  |  | COc1ccc2[nH]c3c(c2c1)CCNC31CCN(Cc2c(F)c(F)c(F)c(F)c2F)CC1 [Compound 2e, 6′-Methoxy-1-((perfluorophenyl)methyl)-2′,3′,4′,9′-tetrahydrospiro[piperidine-4,1′-pyrido[3,4-b]indole]] | EC50 (N1303K-CFTR): 2.1 µM; Relative Vmax (%)* (N1303K-CFTR): 134%
 |  |  |  | Fc1ccc(CN2CCC3(CC2)NCCc2c3[nH]c3ccc(Cl)cc23)c(F)c1 [Compound 5c, 6′-Chloro-1-(2,4-difluorobenzyl)-2′,3′,4′,9′-tetrahydrospiro[piperidine-4,1′-pyrido[3,4-b]indole]] | EC50 (N1303K-CFTR): 2.5 µM; Relative Vmax (%)* (N1303K-CFTR): 89%
6 | > 30 |  |  | COc1ccc2[nH]c3c(c2c1)CCNC31CCN(C(=O)Cc2ccccc2)CC1 [Compound A956] | 
 |  |  |  | CC(C)c1ccc(NC(=O)C(c2ccccc2)N(C)C(=O)Cc2c[nH]c3ccccc23)cc1 (centres unmarked) [Compound P2, N-methyl-N-[2-[[4-(1-methylethyl)phenyl]amino]-2-oxo-1-phenylethyl]-1H-indole-3-acetamide, reference compound] | short-circuit current response when added after VX-770 (N1303K-CFTR): did not further increase current; short-circuit current response when added after VX-770 (Q1313X-CFTR): did not elevate current
100 | 2.6 |  |  | COc1ccc2[nH]c3c(c2c1)CCNC31CCN(Cc2ccc(F)c(F)c2)CC1 [Compound A662] | 
4 | > 30 |  |  | COc1cccc(CN2CCC3(CC2)c2[nH]c4ccccc4c2CCN3C)c1 [Compound A600] | 
7 | > 30 |  |  | COc1ccc2[nH]c3c(c2c1)CCNC31CCN(S(C)(=O)=O)CC1 [Compound A145] | 
 |  | 1 | > 30 | COc1ccc2cc3c(N)nn(C(=O)c4ccncc4)c3nc2c1 [Compound D003] | 
 |  | 24 | 3.6 | COc1ccc2cc3c(N)nn(C(=O)c4ccc(F)cc4)c3nc2c1 [Compound D010] | 
 |  |  |  | COc1ccc2[nH]c3c(c2c1)CCNC31CCN(Cc2ccc(F)c(Cl)c2F)CC1 [Compound 1j, 1-(3-Chloro-2,4-difluorobenzyl)-6′-methoxy-2′,3′,4′,9′-tetrahydrospiro[piperidine-4,1′-pyrido[3,4-b]indole]] | EC50 (N1303K-CFTR): 4.5 µM; Relative Vmax (%)* (N1303K-CFTR): 120%
 |  |  |  | Cc1cc(C)cc(N(Cc2ccc(Cl)cc2)S(=O)(=O)c2cccn3c(C)nnc23)c1 [W1282Xpot-C01, reference compound] | short-circuit current response when added after VX-770 (N1303K-CFTR): activated N1303K-CFTR; activation by two Class II potentiators added together (N1303K-CFTR; W1282Xpot-C01 and ASP-11, 20 μM each, no Class I potentiator): little activation
 |  | 3 | > 30 | COc1ccc2cc3c(N)nn(C(=O)c4cc(OC)c(OC)c(OC)c4)c3nc2c1 [Compound D012] | 
 |  |  |  | COc1ccc2c3c([nH]c2c1)C1(CCN(Cc2ccc(F)cc2F)CC1)NCC3 [Compound 5d, 1-(2,4-Difluorobenzyl)-7′-methoxy-2′,3′,4′,9′-tetrahydrospiro[piperidine-4,1′-pyrido[3,4-b]indole]] | EC50 (N1303K-CFTR): 2.4 µM; Relative Vmax (%)* (N1303K-CFTR): 100%
 |  |  |  | O=c1cc(-c2ccc(O)cc2)oc2cc(O)cc(O)c12 [apigenin] | short-circuit current response when added after VX-770 (Q1313X-CFTR): showed synergy; short-circuit current response when added after GLPG1837 (Q1313X-CFTR; 20 μM GLPG1837): showed synergy
 |  | 21 | 3.4 | COc1ccc2nc3c(cc2c1)c(N)nn3C(=O)c1ccc([N+](=O)[O-])cc1Cl [Compound D138] | 
